Experimental data: publication PMC4569013, “Massive Bioaccumulation and Self‐Assembly of Phenazine Compounds in Live Cells” (Advanced Science, 2015)

Assays:
RAW264.7 macrophages [1] = test: Cell accumulation experiment, transmitted light microscopy of cellular staining pattern; assay type: cell-based; settings: for Inferred uptake: inferred from staining pattern after 72 hour incubation; for Observed cellular staining pattern (Notes): live cells, 72 hour incubation, 5 × 10^−6 M (2.5 × 10^−6 M for I); for Staining in fixed cells: methanol-fixed cells incubated 72 h with compound (control); for Cellular staining relative to clofazimine: live macrophages, 72 h
Method: Cell Accumulation Experiments and Transmitted Light Microscopic Examination: […] After a 24 h incubation (37 °C, 5% CO2), cells were incubated with solution of clofazmine or its chemical derivatives (300 μL of 5 × 10^−6 m concentration; measured cell viability ranging from 85% to 97% for all compounds tested at this concentration; Figure 1) in DMEM (no phenol red; plus 1 × 10^−3 M sodium pyruvate and 5% FBS). For Compound “I,” 2.5 × 10^−6 M of compound solution in media was used for the RAW 264.7 macrophages incubation because of lower cell viability at higher concentrations (IC50 = (3.95 ± 0.11) × 10^−6 M). A solution of clofazmine or other chemical derivatives was made by a diluting stock solutions (2.5 × 10^−3 M in DMSO; 10 × 10^−3 M stock in DMSO were stored at −80 °C for further use) into DMEM with 5% FBS. […] The extracellular concentration of each compound in each well was maintained by daily replacement of the compound‐containing media. After 72 h of incubation with clofazmine or its derivatives, compound‐containing media were removed and cells were washed twice with media. Live cells in the chambered glasses were examined under inverted transmitted light microscopy (Nikon Eclipse Ti microscope) with a 40× objective and color camera. As a control experiment, fixed cells were also microscopically examined after incubation with the compounds. Cells were seeded on the chambered cover glasses at the density of 1.5 × 10^4 cells cm^−2 (RAW264.7 macrophages) or 2.5 × 10^4 cells cm^−2 (MDCK epithelial cells). After an overnight incubation (37 °C, 5% CO2), media was removed from the wells and cold methanol (−20 °C) was added to each well. After 30 s, remaining methanol was removed by washing with media with 5% FBS. Fixed cells were incubated (37 °C, 5% CO2) with clofazmine or derivatives (300 μL of 5 × 10^−6 M; 2.5 × 10^−6 M for I) in media with 5% FBS. After 72 h, fixed RAW264.7 or MDCK cells were washed with media and examined using the same transmitted microscopy conditions as the live cells.

RAW264.7 macrophages [2] = test: Linear diattenuation anisotropy microscopy (LC-PolScope) of intracellular inclusions; assay type: cell-based; settings: 72 h, compared with clofazimine
Method: (§1) The optical design was built on a Nikon Eclipse Ti microscope equipped with the liquid crystal universal compensator consisting of a linear polarizer and a pair of liquid crystal devices. The LC compensator was part of the transillumination path and was used to illuminate the specimen with monochromatic, linearly polarized light of varying polarization orientation. There was no polarization analyzer present in the imaging path. Quantitative intensity images were recorded by a charge‐coupled device camera and a desktop computer calculated the average transmittance, the differential transmittance and the polarization orientation leading to maximum transmittance for each optically resolved picture element (pixel). Acquisition and processing steps were controlled using OpenPolScope plugins for the open source imaging programs ImageJ and Micro‐Manager (MMStudio version 1.4.15). With the combination of hardware and software, polarized light images were acquired at high sensitivity and high spatial resolution for measuring linear diattenuation.
(§2) Linear Diattenuation Microscopy Data Acquisition and Analysis: After RAW264.7 macrophages or MDCK epithelial cells were incubated with the compound in the chambered cover glasses for 72 h, at the same time of performing transmitted microscopic examination, cell specimens were examined under linear diattenuation microscopy using the Nikon Eclipse Ti microscope with 40×/0.75 NA objective and monochromatic light of two different center wavelengths, 546 and 623 nm (passband 30 nm). In the OpenPolScope software, Pol‐Acquisition and Pol‐Analyzer plugins (version 2.0) were used to capture, process, and analyze the attenuation images. Before imaging the samples, the setup was calibrated using a specially prepared slide featuring four small pieces of linear polarization filters. The transmission axes of the filters were oriented in steps of 45° providing a means to calibrate the LC universal compensator settings. After the calibration, a sample slide was inserted and first a sequence of polarized light images of a clear, fully transmitting sample area was recorded, followed by an image sequence featuring the cells under investigation. The images of the clear area were used to determine instrument factors which were needed for computing the average and the polarization dependent loss in transmittance in cellular components visible in the second image.10
(§3) Linear diattenuation is a material property that can occur in materials such as crystals, in which the light absorbing molecules are arranged with a preferred orientation. The molecular alignment creates principal axes in the material denoting polarization directions for which light is maximally and minimally transmitted. Diattenuation is the difference between maximal (T max) and minimal (T min) transmittance, divided by their sum (Equation (1)): (1) Diattenuation=Tmax‐Tmin/Tmax+Tmin
(§4) To simultaneously measure the attenuation of many crystals with arbitrary orientations, we developed algorithms based on four specimen images, each recorded using light of a different polarization orientation: 0°, 45°, 90°, and 135°.10 The four raw images were used to calculate the average and differential transmittance and the orientation of maximum transmittance in every resolved image pixel. To isolate and analyze quantitative data of the objects (crystals), the anisotropy or maximum transmittance axis orientation image file opened in ImageJ was inverted (Ctrl + Shift + I) and thresholded using ImageJ's default automatic method (“Binary” → “Convert to Mask”). By using the ImageJ's algorithm, “Analyze Particles,” data of anisotropy or maximum transmittance axis orientation of objects in images could be obtained automatically. Diattenuation ratios were calculated by dividing anisotropy at 623 nm by that at 546 nm.

MDCK epithelial cells = test: as above; assay type: cell-based, Canine; settings: 72 h, compared with clofazimine
Method: as §1, §2, §3, §4

RAW264.7 macrophages [3] = test: Cell associated mass measurements (bioaccumulation, pmole/cell); assay type: cell-based; settings: 72 h incubation, normalized by number of cells
Method: Cell Associated Mass Measurements: […] After an overnight incubation (37 °C, 5% CO2), cells were incubated with 100 μL of the media (DMEM with 5% FBS) containing 5 × 10^−6 M clofazmine or its chemical derivatives (2.5 × 10^−6 M of Compound “I”). Media containing each compound was replaced every day during the 72 h incubation. After the incubation, media was removed and cells were washed with Hank's balanced salt solution (HBSS) buffer (No. 14025; Invitrogen) twice. RAW264.7 macrophage cells in buffer were scraped and MDCK epithelial cells were exposed to Trypsin‐EDTA solution for detachment from the plates for cell number counting and quantification of cell‐associated masses. After centrifugation (650 × g), supernatant was removed and cell pellets were resuspended in 0.1 M citric acid/0.1 M trisodium citrate buffer (pH 5) for cell counting as previously reported.7 Equal numbers of cells in 100 μL in buffer were transferred to 96 well plates and 100 μL of detergent (ATCC, 30‐1010K) was added into wells for cell lysis. Chemical absorbance from each well was measured by the UV–vis microplate reader (Synergy 2, BioTek Instruments, Winooski, VT) at 490 nm wavelength and cell‐associated mass of each compound was calculated by a standard curve generated separately using the same media and presented as pmole/cell by normalizing the amount of chemical in each cell population sample by the number of cells in each sample.

Inferred uptake (RAW264.7 macrophages [1]) | Accumulation in macrophages (RAW264.7 macrophages [3]) | Structure (SMILES) | Observed cellular staining pattern (Notes) (RAW264.7 macrophages [1]) | Staining in fixed cells (RAW264.7 macrophages [1]) | Diattenuation anisotropy of intracellular inclusions (RAW264.7 macrophages [2]) | Diattenuation anisotropy of intracellular inclusions (MDCK epithelial cells) | Cellular staining relative to clofazimine (RAW264.7 macrophages [1])
Good | – | Oc1ccc(CCN=c2cc3n(-c4ccc(Cl)cc4)c4ccccc4nc-3cc2Nc2ccc(Cl)cc2)cc1O [O] | Most of cells have shown faint orange colored vesicles | Staining not observed in fixed cells | – | – | –
Good | – | C[C@H](N=c1cc2n(-c3ccc(Cl)cc3)c3ccccc3nc-2cc1Nc1ccc(Cl)cc1)c1ccccc1 [R] | Orange-brown staining pattern associated with perinuclear cytoplasmic vesicles in live cells | No staining found in Fixed cells | did not yield a measurable, diattenuation anisotropy signal | did not yield a measurable, diattenuation anisotropy signal | –
Good | greatest accumulation | CC(C)C(CO)N=c1cc2n(-c3ccc(Cl)cc3)c3ccccc3nc-2cc1Nc1ccc(Cl)cc1 (stereo not shown) [V] | Brown crystal-like inclusions appeared in live cells | Staining not observed in fixed cells | even higher anisotropy | only in macrophages | prominent cellular staining
Slow | – | COc1ccc(Nc2cc3nc4ccccc4n(-c4ccc(OC)cc4)c-3cc2=NC(C)C)cc1 [A] | did not exhibit any intracellular staining pattern | – | – | – | –
Very slow | – | CC(C)N=c1cc2n(-c3ccc(C#N)cc3)c3ccccc3nc-2cc1Nc1ccc(C#N)cc1 [B] | formed large extracellular crystals. No intracellular staining pattern | – | – | – | –
Excellent | greatest accumulation | Oc1ccc(CCN=c2cc3n(-c4ccc(Cl)cc4)c4ccccc4nc-3cc2Nc2ccc(Cl)cc2)cc1 [Q] | Purple-black dense cytoplasmic inclusions in live cells | absent in fixed cells | higher diattenuation anisotropy | higher diattenuation anisotropy | more prominent staining patterns
Good | – | NC(=O)CCN=c1cc2n(-c3ccc(Cl)cc3)c3ccccc3nc-2cc1Nc1ccc(Cl)cc1 [L] | Small brown inclusions present in live cells | absent in fixed cells | – | – | –
Good | greatest accumulation | CC(C)[C@H](CO)N=c1cc2n(-c3ccc(Cl)cc3)c3ccccc3nc-2cc1Nc1ccc(Cl)cc1 [W] | Brown crystal-like inclusions are shown in live cells | absent in fixed cells | even higher anisotropy | only in macrophages | prominent cellular staining
Very slow | – | CC(C)N=c1cc2n(-c3ccc(C(F)(F)F)cc3)c3ccccc3nc-2cc1Nc1ccc(C(F)(F)F)cc1 [D] | No intracellular staining pattern observed. Small percentage of cells with orange crystals | – | – | – | –
Moderate | – | Clc1ccc(Nc2cc3nc4ccccc4n(-c4ccc(Cl)cc4)c-3cc2=NCCN2CCOCC2)cc1 [N] | Faint orange staining pattern associated with perinuclear cytoplasmic vesicles | Staining not observed in fixed cells | – | – | –
Slow | – | CC(C)N=c1cc2n(-c3ccc(F)cc3)c3ccccc3nc-2cc1Nc1ccc(F)cc1 [E] | Very faint, brown perinuclear staining pattern observed across all cells | – | – | – | –
Good | – | COc1ccc2[nH]cc(CCN=c3cc4n(-c5ccc(Cl)cc5)c5ccccc5nc-4cc3Nc3ccc(Cl)cc3)c2c1 [M] | Orange-brown or purple inclusions present in live cells | Staining not observed in fixed cells | – | – | comparable in morphology and intensity to those of clofazimine
Moderate | – | COCCN=c1cc2n(-c3ccc(Cl)cc3)c3ccccc3nc-2cc1Nc1ccc(Cl)cc1 [H] | Brown staining associated with vesicles/membranes | Fixed cells also exhibited staining | – | – | comparable in morphology and intensity to those of clofazimine
Slow | – | CC(C)N=c1cc2n(-c3ccc(-c4ccccc4)cc3)c3ccccc3nc-2cc1Nc1ccc(-c2ccccc2)cc1 [C] | Very faint, brown perinuclear staining pattern observed across all cells | – | – | – | –
Slow | – | CCCCN=c1cc2n(-c3ccc(Cl)cc3)c3ccccc3nc-2cc1Nc1ccc(Cl)cc1 [K] | Very faint, brown perinuclear staining pattern | – | – | – | –
